Test results from patent US12565665B2, “Compositions and methods for controlled mRNA translation and stability” (TRUSTEES OF BOSTON UNIVERSITY, priority 2022, dated 2026).

Experiments:
Assay type in all cases: cell-based, human
[1] = test system: GFP-GPI reporter; assay: AUA to AUI editing creating upstream in-frame signal sequence and HA tag, live imaging and HA staining
From the text: To test this, a reporter construct was designed that contained: an MS2-A editable AUA start codon upstream of the murine IgGκ signal sequence and HA epitope tag (SS-HA), an in frame AUG start codon, GFP, and the glycosylphosphatidylinositol (GPI) anchor sequence from Thymocyte differentiation antigen 1 (GPI in diagram) (see e.g., FIG. 27a). With this reporter, in the absence of editing, the majority of the translated product will be from the AUG codon directly upstream of GFP. This will lead to the translation product residing in the cytoplasm with a non-functional GPI anchor (as this post-translational modification (PTM) must occur in the endoplasmic reticulum (ER) lumen). Upon ADAR editing of the upstream AUA to AUI, translation will initiate upstream of the signal sequence, leading to co-translational translocation of HA-GFP-GPI into the ER lumen, the addition of the GPI anchor PTM, and presentation of HA-GFP on the plasma membrane (see e.g., FIG. 27b). With this construct, the editing can be monitored by either by microscopy (looking for ER & plasma membrane localization) or directly by immunostaining for the HA-tag.
HEK cells were co-transfected with the GFP-GPI reporter and either filler DNA, MCP-dADAR, or MCP-ADAR. A GFP-GPI with a functional start codon before the secretion signal was also transfected as a positive control (GFP-GPI Control). One day after transfection, HEK cells were imaged live, and then fixed and stained for HA tag with a primary anti-HA antibody and a secondary antibody that was conjugated to ALEXAFLUOR 647 (AF647).

[2] = test system: mRNA reporters containing different number of stop codons and/or MS2 elements; assay: Stop codon editing assay by Western blot; settings: HEK293FT cells; reporters with different numbers of stop codons and RNA elements
From the text: (§1) HEK 293 FT cells were co-transfected with plasmids expressing the reporter containing 2 UAG stop codons in the hairpin and a pcDNA3 construct encoding a fusion protein composed of MCP, ADAR2-DD (E488Q), and TagBFP.

[3] = test system: UAG-MS2 editing reporter; assay: Stop codon editing reporter (mCherry / mNeonGreen) co-transfected with ADAR variants, flow cytometry (median mNeonGreen to mCherry); settings: n=1
From the text: For the reporter system, the inventors used the fluorescent protein-epitope tag tandem fusions of mCherry-FLAG and HA-mNeonGreen as the upstream and downstream coding regions. Without DD editing activity, translation is terminated after mCherry-FLAG. Coexpression with MCP-ADAR2-DD was hypothesized to lead to binding of MCP-DD, stop codon UAG editing to UIG, and expression of mNeonGreen (FIG. 1B).
as §1
Two days later, fluorescence microscopy images were taken of the cell populations. […] The inventors repeated the experiment and analyzed the samples by flow-cytometry.
The inventors transiently co-transfected HEK 293 FT cells with the mCherry-mNeonGreen reporter, MCP-ADAR2-DD variants containing different configurations of ALFA-tag insertions and NbALFA fusions, and uncaging constructs containing miRFP670 fused to ALFA. Without wishing to be bound by theory, it was hypothesized that the intramolecular interaction would inhibit the ADAR2-DD, but that the ALFA tag on the miRFP670 would displace the lower strength ALFA variants (PE and 78), and perhaps at high enough concentrations displace the intramolecular ALFA, and lead to increased editing.
The inventors then made an ADAR-DD variant with an inserted TEV protease cut site (amino acids ENLYFQG, SEQ ID NO: 286) between the C-terminus of ADAR2-DD and the N-terminus of SpyCatcher (FIG. 5C). The inventors co-transfected HEK 293 FT cells with the reporter construct, the ADAR-DD TEVcs variant, and the TEV protease and 48 hours later analyzed the transfected cells via flow cytometry (FIG. 5D-5E).
Mutated versions were then cloned and co-transfected with an editing reporter in the absence and presence of A-1331852, and absolute background and fold change upon drug addition were determined by flow cytometry (see e.g., FIG. 22d and table 11).

[4] = test system: editable AUG reporters; assay: Destruction of an AUG start codon to IUG, EGFPd2/dTomato reporter, flow cytometry; settings: 48 hours post-transfection; n=3
From the text: To test this, an ADAR substrate was designed similar to the substrates tested above, but with an AUG codon in a dsRNA hairpin with a mismatch to promote the deamination of the correct adenine (see e.g., FIG. 28b). This scheme was similarly tested with both the high affinity MS2-C and lower affinity MS2-A variants by cloning these substrates into a pcDNA3 vector with a bidirectional CMV driving the expression of dTomato and EGFPd2 (see e.g., FIG. 28c).
HEK cells were co-transfected with the two different reporter constructs (MS2-C and MS2-A) and cither filler DNA, MCP-dADAR, or MCP-ADAR. 48 hours post-transfection, cells were lifted and analyzed by flow cytometry. Transfected cells were gated by dTomato, and the median EGFPd2-to-dTomato ratio for the population was calculated per replicate (n=3) by FLOWJO. 2-Way ANOVA was performed to determine significance.

[5] = test system: Non-Stop-Decay reporter construct; assay: Non-stop decay OFF-switch reporter (dTomato-BiCMV-EGFPd2); settings: biCMV reporter with 2 UAG stop codons; 48-hours post-transfection
From the text: In order to do so, the inventors designed a synthetic transcript (FIG. 2A) where there is an open reading frame (green), 1 or more stop codons in an RNA-hairpin (dark gray), a specific RNA element (light gray), and a 3′UTR with no downstream stop codons prior to the polyadenylate (polyA) tail. The inventors created a reporter plasmid that contained a bidirectional CMV driving the expression dTomato on one transcript and EGFPd2, an editable stop codon, an MS2 operator, and a mutated rabbit-β-globin 3′UTR/poly A signal sequence lacking additional stop codons on the other transcript (FIG. 2B). In the absence of ADAR-DD activity, both dTomato and EGFPd2 should be translated and expressed. However, coexpression of MCP-ADAR2 should lead to editing of the only in-frame stop codon and the initiation of an endogenous process called non-stop decay, whereby the translating ribosome stalls on the polyA-tail and recruits Ski7 followed by exonucleases to destroy the mRNA (FIG. 2C). In this process, proteosomal degradation of the nascent, unreleased polypeptide also occurs. […]
As a final test, the inventors used the MS1(117A)/Mcl-1 variant with the dTomato-BiCMV-EGFPd2 reporter plasmid (FIG. 2B), which should lose EGFPd2 fluorescence with ADAR editing of the final stop codon.

[6] = test system: UAG-MS2 editing reporter; assay: Stop codon editing reporter (mCherry / mNeonGreen) co-transfected with ADAR variants, fluorescence microscopy / ImageJ quantification; settings: HEK 293 FT cells co-transfected with reporter containing 2 UAG stop codons in the hairpin; two days after transfection

MCP-linker-ADAR2(E488Q)-TagBFP [MCP-ADAR]
HA tag staining of cells with AUA construct ([1]; fixed, permeabilized, anti-HA and AF647 secondary): robust staining | cellular distribution of GFP from AUA-SS-GFP-GPI, live imaging ([1]; one day after transfection): looked very similar | off-target editing of stop-codon reporters, Western blot (HA-mNeonGreen) [2]: Almost no off-target editing | Fold Change ([3]; 1 μM vs 0 μM A-1331852, flow cytometry): 1.03 | Flow Cytometry Values, 0 μM (median of the ratio of mNeonGreen to mCherry) ([3]; HEK cells co-transfected with ADAR reporter and ADAR variant, 0 μM A-1331852, two days after transfection, gated by BFP): 0.9853 | Flow Cytometry Values, 1 μM (median of the ratio of mNeonGreen to mCherry) ([3]; HEK cells co-transfected with ADAR reporter and ADAR variant, 1 μM A-1331852, two days after transfection, gated by BFP): 1.0147 | relative EGFPd2 levels, active vs inactive ADAR, MS2-A based AUG construct [4]: further, significant decrease in relative EGFPd2 levels | translational efficiency, MS2-A based AUG construct [4]: significant decrease in translational efficiency | EGFPd2 expression relative to catalytically inactive DD, fluorescence microscopy [5]: greatly decreased EGFPd2 expression levels | mNeonGreen expression, fluorescence microscopy [6]: mNeonGreen robustly expressed
